# In patent US11357230B2, “Herbicidal amides” (FMC Corporation, priority 2017, dated 2022):
# Tests used:
# Format in all cases: in vivo
# [1] = tested on: pigweed (Amaranthus retroflexus); assay: Test A postemergence, pigweed; conditions: approximately 10 d
# How it was run: (§1)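 Compounds were applied before emergence to seeded pots of loam and sand, or after emergence to plants 2 to 10 cm tall in the same soil. Injury was rated visually about 10 d later relative to untreated controls, where 100 indicates complete control.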
# rice (Oryza sativa) = assay: Test B flooded paddy test, rice; conditions: 250 g ai/ha, Flood (paddy water), 13 to 15 d
# How it was run: (§2)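 Plants at the 2-leaf stage were flooded to 3 cm above soil, and test compounds were applied directly into the paddy water, which was held at that depth throughout. After 13 to 15 d in a greenhouse, injury was rated visually against untreated controls on a 0–100 scale (0 no effect, 100 complete control).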
# [2] = tested on: ryegrass, Italian (Italian ryegrass, Lolium multiflorum); assay: Test A preemergence, Italian ryegrass; conditions: approximately 10 d
# How it was run: (§3)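 Visual ratings from 0 (no effect) to 100 (complete control) compared treated pots with untreated ones roughly 10 d after application. Chemicals with a surfactant in a non-phytotoxic solvent were sprayed onto soil after seeding into loam plus sand, or onto plants at the one- to two-leaf stage grown in the same mix.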
# [3] = tested on: blackgrass (Alopecurus myosuroides); assay: Test A postemergence, blackgrass; conditions: approximately 10 d
# How it was run: as §1
# [4] = tested on: ryegrass, Italian (Italian ryegrass, Lolium multiflorum); assay: Test A postemergence, Italian ryegrass; conditions: approximately 10 d
# How it was run: as §1
# [5] = tested on: foxtail, green (green foxtail, Setaria viridis); assay: Test A preemergence, green foxtail; conditions: approximately 10 d
# Text: (§4) Seeds of plant species selected from barnyardgrass (Echinochloa crus-galli), kochia (Kochia scoparia), ragweed (common ragweed, Ambrosia elatior), ryegrass, Italian (Italian ryegrass, Lolium multiflorum), foxtail, green (green foxtail, Setaria viridis), and pigweed (Amaranthus retroflexus) were planted into a blend of loam soil and sand and treated preemergence with a directed soil spray using test chemicals formulated in a non-phytotoxic solvent mixture which included a surfactant. At the same time, plants selected from these weed species and also wheat (Triticum aestivum), corn (Zea mays), blackgrass (Alopecurus myosuroides), and galium (catchweed bedstraw, Galium aparine) were planted in pots containing the same blend of loam soil and sand and treated with postemergence applications of test chemicals formulated in the same manner. Plants ranged in height from 2 to 10 cm and were in the one- to two-leaf stage for the postemergence treatment. Treated plants and untreated controls were maintained in a greenhouse for approximately 10 d, after which time all treated plants were compared to untreated controls and visually evaluated for injury. Plant response ratings, summarized in Table A, are based on a 0 to 100 scale where 0 is no effect and 100 is complete control. A dash (-) response means no test result.
# [6] = tested on: galium (catchweed bedstraw, Galium aparine); assay: Test A postemergence, galium; conditions: approximately 10 d
# How it was run: as §1
# kochia (Kochia scoparia) [7] = assay: Test A postemergence, kochia; conditions: approximately 10 d
# How it was run: as §1
# [8] = tested on: pigweed (Amaranthus retroflexus); assay: Test A preemergence, pigweed; conditions: approximately 10 d
# How it was run: as §3
# [9] = tested on: wheat (Triticum aestivum); assay: Test A postemergence, wheat; conditions: approximately 10 d
# How it was run: as §1
# [10] = tested on: barnyardgrass (Echinochloa crus-galli); assay: Test B flooded paddy test, barnyardgrass; conditions: 250 g ai/ha, Flood (paddy water), 13 to 15 d
# How it was run: as §2
# [11] = tested on: ragweed (common ragweed, Ambrosia elatior); assay: Test A preemergence, ragweed; conditions: approximately 10 d
# How it was run: as §3
# [12] = tested on: ducksalad (Heteranthera limosa); assay: Test B flooded paddy test, ducksalad; conditions: 250 g ai/ha, Flood (paddy water), 13 to 15 d
# How it was run: as §2
# [13] = tested on: sedge, umbrella (small-flower umbrella sedge, Cyperus difformis); assay: Test B flooded paddy test, umbrella sedge; conditions: 250 g ai/ha, Flood (paddy water), 13 to 15 d
# How it was run: as §2
# [14] = tested on: barnyardgrass (Echinochloa crus-galli); assay: Test A preemergence, barnyardgrass; conditions: approximately 10 d
# How it was run: as §3
# kochia (Kochia scoparia) [15] = assay: Test A preemergence, kochia; conditions: approximately 10 d
# How it was run: as §3
# corn (Zea mays) = assay: Test A postemergence, corn; conditions: approximately 10 d
# How it was run: as §1
# [16] = tested on: barnyardgrass (Echinochloa crus-galli); assay: Test A postemergence, barnyardgrass; conditions: approximately 10 d
# How it was run: as §1
# [17] = tested on: ragweed (common ragweed, Ambrosia elatior); assay: Test A postemergence, ragweed; conditions: approximately 10 d
# How it was run: as §1
# [18] = tested on: foxtail, green (green foxtail, Setaria viridis); assay: Test A postemergence, green foxtail; conditions: approximately 10 d
# Text: as §4
smiles,measurement,setting,value
"CN1C[C@H](c2ccc(C(F)(F)F)cc2)[C@@H](C(=O)Nc2cccc(F)c2F)C1=NN [Compound 2, (3R,4S)—N-(2,3-difluorophenyl)-2-hydrazinylidene-1-methyl-4-[4-(trifluoromethyl)phenyl]-3-pyrrolidinecarboxamide]","Plant response rating (0 to 100 scale, 0 is no effect, 100 is complete control)",[1]; 31 g ai/ha,0
same,"Plant response rating (0 to 100 scale, 0 is no effect, 100 is complete control)",[1]; 125 g ai/ha,40
same,"Plant response rating (scale of 0 to 100, 0 is no effect, 100 is complete control)",rice (Oryza sativa),0
same,"Plant response rating (0 to 100 scale, 0 is no effect, 100 is complete control)",[2]; 31 g ai/ha,0
same,"Plant response rating (0 to 100 scale, 0 is no effect, 100 is complete control)",[2]; 125 g ai/ha,0
same,"Plant response rating (0 to 100 scale, 0 is no effect, 100 is complete control)",[3]; 31 g ai/ha,0
same,"Plant response rating (0 to 100 scale, 0 is no effect, 100 is complete control)",[3]; 125 g ai/ha,30
same,"Plant response rating (0 to 100 scale, 0 is no effect, 100 is complete control)",[4]; 31 g ai/ha,0
same,"Plant response rating (0 to 100 scale, 0 is no effect, 100 is complete control)",[4]; 125 g ai/ha,30
same,"Plant response rating (0 to 100 scale, 0 is no effect, 100 is complete control)",[5]; 31 g ai/ha,70
same,"Plant response rating (0 to 100 scale, 0 is no effect, 100 is complete control)",[5]; 125 g ai/ha,100
same,"Plant response rating (0 to 100 scale, 0 is no effect, 100 is complete control)",[6]; 31 g ai/ha,60
same,"Plant response rating (0 to 100 scale, 0 is no effect, 100 is complete control)",[6]; 125 g ai/ha,60
same,"Plant response rating (0 to 100 scale, 0 is no effect, 100 is complete control)",kochia (Kochia scoparia) [7]; 31 g ai/ha,0
same,"Plant response rating (0 to 100 scale, 0 is no effect, 100 is complete control)",kochia (Kochia scoparia) [7]; 125 g ai/ha,0
same,"Plant response rating (0 to 100 scale, 0 is no effect, 100 is complete control)",[8]; 31 g ai/ha,0
same,"Plant response rating (0 to 100 scale, 0 is no effect, 100 is complete control)",[8]; 125 g ai/ha,80
same,"Plant response rating (0 to 100 scale, 0 is no effect, 100 is complete control)",[9]; 31 g ai/ha,0
same,"Plant response rating (0 to 100 scale, 0 is no effect, 100 is complete control)",[9]; 125 g ai/ha,0
same,"Plant response rating (scale of 0 to 100, 0 is no effect, 100 is complete control)",[10],40
same,"Plant response rating (0 to 100 scale, 0 is no effect, 100 is complete control)",[11]; 31 g ai/ha,0
same,"Plant response rating (0 to 100 scale, 0 is no effect, 100 is complete control)",[11]; 125 g ai/ha,40
same,"Plant response rating (scale of 0 to 100, 0 is no effect, 100 is complete control)",[12],0
same,"Plant response rating (scale of 0 to 100, 0 is no effect, 100 is complete control)",[13],50
same,"Plant response rating (0 to 100 scale, 0 is no effect, 100 is complete control)",[14]; 31 g ai/ha,70
same,"Plant response rating (0 to 100 scale, 0 is no effect, 100 is complete control)",[14]; 125 g ai/ha,90
same,"Plant response rating (0 to 100 scale, 0 is no effect, 100 is complete control)",kochia (Kochia scoparia) [15]; 31 g ai/ha,0
same,"Plant response rating (0 to 100 scale, 0 is no effect, 100 is complete control)",kochia (Kochia scoparia) [15]; 125 g ai/ha,60
same,"Plant response rating (0 to 100 scale, 0 is no effect, 100 is complete control)",corn (Zea mays); 31 g ai/ha,10
same,"Plant response rating (0 to 100 scale, 0 is no effect, 100 is complete control)",corn (Zea mays); 125 g ai/ha,10
same,"Plant response rating (0 to 100 scale, 0 is no effect, 100 is complete control)",[16]; 31 g ai/ha,20
same,"Plant response rating (0 to 100 scale, 0 is no effect, 100 is complete control)",[16]; 125 g ai/ha,60
same,"Plant response rating (0 to 100 scale, 0 is no effect, 100 is complete control)",[17]; 31 g ai/ha,0
same,"Plant response rating (0 to 100 scale, 0 is no effect, 100 is complete control)",[17]; 125 g ai/ha,0
same,"Plant response rating (0 to 100 scale, 0 is no effect, 100 is complete control)",[18]; 31 g ai/ha,30
same,"Plant response rating (0 to 100 scale, 0 is no effect, 100 is complete control)",[18]; 125 g ai/ha,70
